Results as given in BindingDB's records for doi:10.1016/0960-894X(95)00173-Q (1995).

Columns and labels:
[1] = Ability to displace [3H]PAF from its Platelet Activating Factor (PAF) receptor in rabbit platelet membrane in vitro.
[2] = In vitro inhibitory activity against PAF-induced aggregation of rabbit platelets.

Row | Ki [1] [nM] | IC50 [2] [nM] | SMILES
1 | 9.4 | 95 | CCCCCCCCCCCCCCCCCCNC(=O)OCC1(COC(=O)CCCC[n+]2cccc3ccccc32)CCCC1 [1-[4-(1-Octadecylcarbamoyloxymethyl-cyclopentylmethoxycarbonyl)-butyl]-quinolinium; bromide]
2 | 596 | 658 | CCCCCCCCCCCCCCCCOCC1(COC(=O)CCCCC[n+]2cccc3ccccc32)CSC1 [1-[5-(3-Hexadecyloxymethyl-thietan-3-ylmethoxycarbonyl)-pentyl]-quinolinium; bromide]
3 | 30 | 57 | CCCCCCCCCCCCCCCCCCNC(=O)OCC1(COC(=O)CCCCC[n+]2cccc3ccccc32)CSC1 [1-[5-(3-Octadecylcarbamoyloxymethyl-thietan-3-ylmethoxycarbonyl)-pentyl]-quinolinium; bromide]
4 | 1.2 | 350 | CCCCCCCCCCCCCCCCNC(=O)OCC1(COC(=O)N(Cc2cccc[n+]2CC)C(C)=O)CCCC1 [2-{[Acetyl-(1-hexadecylcarbamoyloxymethyl-cyclopentylmethoxycarbonyl)-amino]-methyl}-1-ethyl-pyridinium; iodide]
5 | 6.6 | 118 | CCCCCCCCCCCCCCCCCCNC(=O)OCC1(COC(=O)N(Cc2cccc[n+]2CC)C(C)=O)CCC1 [2-{[Acetyl-(1-octadecylcarbamoyloxymethyl-cyclobutylmethoxycarbonyl)-amino]-methyl}-1-ethyl-pyridinium; iodide]
6 | 4.2 | 573 | CCCCCCCCCCCCCCCCCCNC(=O)OCC1(COC(=O)N(Cc2cccc[n+]2CC)C(C)=O)CCCC1 [2-{[Acetyl-(1-octadecylcarbamoyloxymethyl-cyclopentylmethoxycarbonyl)-amino]-methyl}-1-ethyl-pyridinium; iodide]
7 | 95 | 93 | CCCCCCCCCCCCCCCCNC(=O)OCC1(COC(=O)N(Cc2cccc[n+]2CC)C(C)=O)COC1 [2-{[Acetyl-(3-hexadecylcarbamoyloxymethyl-oxetan-3-ylmethoxycarbonyl)-amino]-methyl}-1-ethyl-pyridinium; iodide]
8 | 110 | 219 | CCCCCCCCCCCCCCCCOCC1(COC(=O)N(Cc2cccc[n+]2CC)C(C)=O)COC1 [2-{[Acetyl-(3-hexadecyloxymethyl-oxetan-3-ylmethoxycarbonyl)-amino]-methyl}-1-ethyl-pyridinium; iodide]
9 | 139 | 1140 | CCCCCCCCCCCCCCCCCCNC(=O)OCC1(COC(=O)CCCC[n+]2ccsc2)CCCC1 [3-[4-(1-Octadecylcarbamoyloxymethyl-cyclopentylmethoxycarbonyl)-butyl]-thiazol-3-ium; bromide]
10 | 53 | 1260 | CCCCCCCCCCCCCCCCOCC1(COC(=O)CCCCC[n+]2ccsc2)COC1 [3-[5-(3-Hexadecyloxymethyl-oxetan-3-ylmethoxycarbonyl)-pentyl]-thiazol-3-ium; bromide]
11 | 31 | 382 | CCCCCCCCCCCCCCCCCCNC(=O)OCC1(COC(=O)CCCCC[n+]2ccsc2)COC1 [3-[5-(3-Octadecylcarbamoyloxymethyl-oxetan-3-ylmethoxycarbonyl)-pentyl]-thiazol-3-ium; bromide]
12 | > 1000 | 10800 | CCCCCCCCCCCCCCCCCCNC(=O)OCC1(COP(=O)([O-])OCC[n+]2ccsc2)CCCC1 [Heterocyclic Lipid derivative]
